ChEMBL document CHEMBL1156962, “Evaluation of retro-inverso modifications of HTLV-1 protease inhibitors containing a hydroxyethylamine isoster” (Bioorg Med Chem, 2010)

Experiment: Inhibition of HTLV1 protease assessed as decrease in substrate concentration by HPLC analysis
Design: species or system Human T-cell leukemia virus type I

Structure (SMILES)	IC50
CC[C@H](C)[C@@H](NC[C@H](O)[C@@H](CC(C)C)NC(=O)[C@H]1CCCN1C(C)=O)C(=O)N[C@@H](C(=O)N1CCC[C@@H]1C(N)=O)C(C)C	> 10000 µM
CC[C@@H](C)[C@@H](NC(=O)[C@@H](CC(C)C)[C@@H](O)C[C@H]1CCCN1C(=O)NCc1ccccc1)C(=O)N[C@@H](C(=O)N1CCC[C@@H]1C(=O)N1CCC[C@@H]1C(N)=O)C(C)C	550 µM
CC[C@@H](C)[C@@H](NC(=O)[C@H](CC(C)C)[C@@H](O)C[C@H]1CCCN1C(=O)NCc1ccccc1)C(=O)N[C@@H](C(=O)N1CCC[C@@H]1C(=O)N1CCC[C@@H]1C(N)=O)C(C)C	1500 µM
CC[C@@H](C)[C@@H](NC(=O)[C@@H](CC(C)C)[C@H](O)C[C@H]1CCCN1C(=O)NCc1ccccc1)C(=O)N[C@@H](C(=O)N1CCC[C@@H]1C(=O)N1CCC[C@@H]1C(N)=O)C(C)C	160 µM
CC[C@@H](C)[C@@H](NC(=O)[C@H](CC(C)C)[C@H](O)C[C@H]1CCCN1C(=O)NCc1ccccc1)C(=O)N[C@@H](C(=O)N1CCC[C@@H]1C(=O)N1CCC[C@@H]1C(N)=O)C(C)C	350 µM
CC[C@H](C)[C@@H](NC[C@H](O)[C@@H](CC(C)C)NC(C)=O)C(=O)N[C@@H](C(=O)N1CCC[C@@H]1C(N)=O)C(C)C	> 10000 µM
